Data reported in patent publication EP4678638A1, “NEW E3 UBIQUITIN LIGASE LIGAND, PROTEIN DEGRADATION AGENT AND USE THEREOF” (priority 2023, dated 2024).

Columns and labels:
[1] = molecular target: T1, human Cereblon WT GST-tagged protein (Homo sapiens, UniProt Q96SW2); test: CRBN binding, HTRF (CEREBLON BINDING kit); conditions: Table II-2, CRBN binding screening, HTRF
T1 construct: purchased CISBIO 64BDCRBNPEH
Procedure, shortened: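 After 3 h at room temperature, emission at 665 and 620 nm was measured in a homogeneous time-resolved fluorescence format. Compounds competed with a Thalidomide-Re probe for GST-tagged wild-type human CRBN, which was labelled with a Eu anti-GST antibody.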

IKZF3 = molecular target: T2, IKZF3 (Homo sapiens, UniProt Q96SW2+Q9UKT9); test: Western blot degradation of IKZF3 (hPBMC); format: cell-based; conditions: Table D16
T2 construct: evaluate the effects of the compounds of the present disclosure on the expression of target proteins in cells; endogenous in cells; host or cells: hPBMC
Procedure: (§1) Conventional Western blot assay was performed to evaluate the effects of the compounds of the present disclosure on the expression of target proteins in cells.
(§2) (1) Cell Seeding and Protein Harvesting: The selected cells were processed according to the cell seeding procedure and protein harvesting procedure in Table III-2. Table III-2 Cell Seeding and Protein Harvesting Procedures
(§3) (2) To the collected supernatant, 5X SDS sample loading buffer was added, followed by denaturation at 95°C for 5 minutes. The denatured samples were then separated by SDS-PAGE electrophoresis on a polyacrylamide gel. Proteins were transferred to a nitrocellulose membrane (0.45 µm NC membrane), blocked with blocking buffer at room temperature for 1 hour, and subjected to antibody incubation and development procedures according to the antibody manufacturer's instructions (Cell Signaling Technology).
(§4) Half-Maximal Degradation Concentration value (the drug concentration required for degrading proteins by 50%, abbreviated as DC50) reads method: comparing the grayscale values of Western blot bands from drug-treated samples with those from blank DMSO-treated controls, and identifying the drug concentration range at which the grayscale value is half that of the DMSO-treated control bands.
(§5) DC50 values can be calculated using ImageJ software to measure grayscale values of Western blot bands from drug-treated samples. The concentration-response curve is fitted to estimate the drug concentration corresponding to half the grayscale value.
(§6) Target protein remaining (%) refers to the percentage of target protein remaining in hPBMC cells after treatment with protein degrader compounds.
(§7) Calculation method for target protein remaining (%): Use ImageJ software to measure grayscale values of Western blot bands from drug (protein degrader)-treated samples. The grayscale value of drug-treated bands is divided by that of internal control protein bands, and the resulting quotient is normalized to obtain the relative percentage of remaining target protein after protein degrader treatment.
(§8) Target protein degradation rate (%) = 100% - target protein remaining (%).

CK1a = molecular target: T3, CK1a (Homo sapiens, UniProt P48729+Q96SW2); test: Western blot degradation of CK1a (hPBMC); format: cell-based; conditions: Table D16
T3 construct: evaluate the effects of the compounds of the present disclosure on the expression of target proteins in cells; endogenous in cells; host or cells: hPBMC
Procedure: as §1, §2, §3, §4, §5, §6, §7, §8

IKZF1 = molecular target: T4, IKZF1 (Homo sapiens, UniProt Q13422+Q96SW2); test: Western blot degradation of IKZF1 (hPBMC); format: cell-based; conditions: Table D16
T4 construct: evaluate the effects of the compounds of the present disclosure on the expression of target proteins in cells; endogenous in cells; host or cells: hPBMC
Procedure: as §1, §2, §3, §4, §5, §6, §7, §8

GSPT1 = molecular target: T5, GSPT1 (Homo sapiens, UniProt P15170+Q96SW2); test: Western blot degradation of GSPT1 (hPBMC); format: cell-based; conditions: Table D16
T5 construct: evaluate the effects of the compounds of the present disclosure on the expression of target proteins in cells; endogenous in cells; host or cells: hPBMC
Procedure: as §1, §2, §3, §4, §5, §6, §7, §8

IKZF2 = molecular target: T6, IKZF2 (Homo sapiens, UniProt Q96SW2+Q9UKS7); test: Western blot degradation of IKZF2 (hPBMC); format: cell-based; conditions: Table D16
T6 construct: evaluate the effects of the compounds of the present disclosure on the expression of target proteins in cells; endogenous in cells; host or cells: hPBMC
Procedure: as §1, §2, §3, §4, §5, §6, §7, §8

WEE1 = molecular target: T7, WEE1 (Homo sapiens, UniProt P30291+Q96SW2); test: Western blot degradation of WEE1 (hPBMC); format: cell-based; conditions: Table D16
T7 construct: evaluate the effects of the compounds of the present disclosure on the expression of target proteins in cells; endogenous in cells; host or cells: hPBMC
Procedure: as §1, §2, §3, §4, §5, §6, §7, §8

T2 sequence (Q9UKT9 whole entry): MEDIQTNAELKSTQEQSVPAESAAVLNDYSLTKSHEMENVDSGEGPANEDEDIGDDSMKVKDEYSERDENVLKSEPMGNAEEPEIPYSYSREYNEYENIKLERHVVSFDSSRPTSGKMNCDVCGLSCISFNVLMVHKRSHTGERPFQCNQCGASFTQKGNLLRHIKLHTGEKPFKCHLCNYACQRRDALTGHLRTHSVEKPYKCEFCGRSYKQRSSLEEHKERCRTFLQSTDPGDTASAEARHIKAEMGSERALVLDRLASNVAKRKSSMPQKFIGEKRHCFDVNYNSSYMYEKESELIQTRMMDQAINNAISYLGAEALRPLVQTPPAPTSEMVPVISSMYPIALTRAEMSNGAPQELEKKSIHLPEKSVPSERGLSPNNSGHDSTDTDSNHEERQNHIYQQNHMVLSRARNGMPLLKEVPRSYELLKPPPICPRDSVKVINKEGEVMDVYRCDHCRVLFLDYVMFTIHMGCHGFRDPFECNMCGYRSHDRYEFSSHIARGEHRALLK
T2 sequence (Q96SW2 whole entry): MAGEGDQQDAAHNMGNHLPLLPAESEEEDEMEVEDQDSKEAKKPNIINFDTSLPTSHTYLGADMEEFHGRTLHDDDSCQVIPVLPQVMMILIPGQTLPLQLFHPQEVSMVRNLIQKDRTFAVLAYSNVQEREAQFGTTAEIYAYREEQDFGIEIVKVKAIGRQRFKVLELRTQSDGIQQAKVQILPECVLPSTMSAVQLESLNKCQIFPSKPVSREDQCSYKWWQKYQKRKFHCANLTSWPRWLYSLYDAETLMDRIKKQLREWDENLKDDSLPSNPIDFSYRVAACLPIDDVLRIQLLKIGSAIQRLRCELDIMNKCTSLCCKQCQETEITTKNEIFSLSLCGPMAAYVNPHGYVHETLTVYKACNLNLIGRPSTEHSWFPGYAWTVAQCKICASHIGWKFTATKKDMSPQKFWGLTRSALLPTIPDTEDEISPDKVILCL
T2 sequence (Q16531 whole entry partner): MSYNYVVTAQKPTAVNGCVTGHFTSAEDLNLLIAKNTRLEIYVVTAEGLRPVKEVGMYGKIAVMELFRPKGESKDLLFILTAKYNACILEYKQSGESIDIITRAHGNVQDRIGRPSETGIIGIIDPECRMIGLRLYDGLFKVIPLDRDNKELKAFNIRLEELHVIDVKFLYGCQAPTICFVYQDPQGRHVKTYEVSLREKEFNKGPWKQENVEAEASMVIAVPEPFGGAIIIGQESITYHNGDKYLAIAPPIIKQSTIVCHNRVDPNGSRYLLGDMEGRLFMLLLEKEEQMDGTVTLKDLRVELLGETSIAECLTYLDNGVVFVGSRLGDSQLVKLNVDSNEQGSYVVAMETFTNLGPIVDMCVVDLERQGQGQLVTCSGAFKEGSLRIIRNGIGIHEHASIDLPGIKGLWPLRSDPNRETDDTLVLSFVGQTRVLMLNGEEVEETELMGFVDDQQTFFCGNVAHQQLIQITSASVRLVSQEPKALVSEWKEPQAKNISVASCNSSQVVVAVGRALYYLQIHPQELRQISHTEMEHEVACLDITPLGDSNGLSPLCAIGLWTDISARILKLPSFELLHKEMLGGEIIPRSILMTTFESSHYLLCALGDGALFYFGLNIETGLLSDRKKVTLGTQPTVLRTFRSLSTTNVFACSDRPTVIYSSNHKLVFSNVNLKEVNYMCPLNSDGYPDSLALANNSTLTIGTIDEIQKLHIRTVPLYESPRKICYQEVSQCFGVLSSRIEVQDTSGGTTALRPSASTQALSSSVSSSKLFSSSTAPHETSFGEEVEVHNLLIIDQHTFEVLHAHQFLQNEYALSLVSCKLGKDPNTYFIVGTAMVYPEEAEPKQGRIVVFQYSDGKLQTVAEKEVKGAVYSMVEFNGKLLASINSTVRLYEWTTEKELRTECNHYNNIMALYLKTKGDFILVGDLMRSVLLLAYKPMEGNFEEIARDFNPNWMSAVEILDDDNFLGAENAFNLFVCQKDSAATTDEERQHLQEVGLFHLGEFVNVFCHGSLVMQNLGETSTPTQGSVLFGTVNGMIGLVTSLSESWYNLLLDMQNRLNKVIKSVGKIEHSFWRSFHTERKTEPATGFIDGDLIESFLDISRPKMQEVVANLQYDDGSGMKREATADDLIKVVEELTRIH
T3 sequence (P48729 whole entry): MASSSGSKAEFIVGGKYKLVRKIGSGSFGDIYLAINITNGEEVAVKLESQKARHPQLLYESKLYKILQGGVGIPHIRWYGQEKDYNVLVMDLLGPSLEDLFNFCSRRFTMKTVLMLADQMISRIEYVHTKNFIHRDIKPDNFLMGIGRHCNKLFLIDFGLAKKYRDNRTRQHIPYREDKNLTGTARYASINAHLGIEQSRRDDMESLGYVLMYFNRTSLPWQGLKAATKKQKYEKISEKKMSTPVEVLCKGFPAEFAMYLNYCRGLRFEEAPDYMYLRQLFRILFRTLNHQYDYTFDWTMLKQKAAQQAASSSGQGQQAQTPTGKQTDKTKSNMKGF
T3 sequence (Q96SW2 whole entry): as the sequence (Q96SW2 whole entry) above
T3 sequence (Q16531 whole entry partner): as the sequence (Q16531 whole entry partner) above
T5 sequence (P15170 whole entry): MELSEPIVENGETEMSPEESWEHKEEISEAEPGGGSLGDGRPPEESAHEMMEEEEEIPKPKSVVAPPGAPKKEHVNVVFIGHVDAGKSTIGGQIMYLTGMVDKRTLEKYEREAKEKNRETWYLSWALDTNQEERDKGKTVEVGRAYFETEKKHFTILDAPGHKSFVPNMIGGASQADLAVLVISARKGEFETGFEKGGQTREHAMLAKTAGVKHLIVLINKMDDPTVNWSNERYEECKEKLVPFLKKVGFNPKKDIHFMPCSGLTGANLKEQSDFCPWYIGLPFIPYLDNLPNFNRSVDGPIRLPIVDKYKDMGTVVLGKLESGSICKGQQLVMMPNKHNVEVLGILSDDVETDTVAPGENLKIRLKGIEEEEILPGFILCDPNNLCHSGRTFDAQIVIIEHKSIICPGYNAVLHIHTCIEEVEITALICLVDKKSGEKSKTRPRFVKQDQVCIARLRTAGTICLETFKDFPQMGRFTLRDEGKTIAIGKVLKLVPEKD
T5 sequence (Q96SW2 whole entry): as the sequence (Q96SW2 whole entry) above
T5 sequence (Q16531 whole entry partner): as the sequence (Q16531 whole entry partner) above
T6 sequence (Q9UKS7 whole entry): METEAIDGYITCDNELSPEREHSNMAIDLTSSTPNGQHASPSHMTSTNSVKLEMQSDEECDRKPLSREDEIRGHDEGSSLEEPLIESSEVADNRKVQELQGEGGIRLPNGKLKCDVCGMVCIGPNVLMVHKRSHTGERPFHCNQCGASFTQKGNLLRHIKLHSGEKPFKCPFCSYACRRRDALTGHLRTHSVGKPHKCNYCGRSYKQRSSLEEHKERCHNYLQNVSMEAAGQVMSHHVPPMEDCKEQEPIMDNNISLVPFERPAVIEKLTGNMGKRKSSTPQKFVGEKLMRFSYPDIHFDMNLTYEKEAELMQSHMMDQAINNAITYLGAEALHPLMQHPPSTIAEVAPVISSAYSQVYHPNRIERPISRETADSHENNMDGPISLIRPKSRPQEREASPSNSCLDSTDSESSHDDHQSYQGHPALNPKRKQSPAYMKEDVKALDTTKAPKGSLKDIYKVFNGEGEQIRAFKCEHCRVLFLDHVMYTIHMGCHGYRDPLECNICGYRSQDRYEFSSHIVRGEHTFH
T6 sequence (Q96SW2 whole entry): as the sequence (Q96SW2 whole entry) above
T6 sequence (Q16531 whole entry partner): as the sequence (Q16531 whole entry partner) above
T7 sequence (P30291 whole entry): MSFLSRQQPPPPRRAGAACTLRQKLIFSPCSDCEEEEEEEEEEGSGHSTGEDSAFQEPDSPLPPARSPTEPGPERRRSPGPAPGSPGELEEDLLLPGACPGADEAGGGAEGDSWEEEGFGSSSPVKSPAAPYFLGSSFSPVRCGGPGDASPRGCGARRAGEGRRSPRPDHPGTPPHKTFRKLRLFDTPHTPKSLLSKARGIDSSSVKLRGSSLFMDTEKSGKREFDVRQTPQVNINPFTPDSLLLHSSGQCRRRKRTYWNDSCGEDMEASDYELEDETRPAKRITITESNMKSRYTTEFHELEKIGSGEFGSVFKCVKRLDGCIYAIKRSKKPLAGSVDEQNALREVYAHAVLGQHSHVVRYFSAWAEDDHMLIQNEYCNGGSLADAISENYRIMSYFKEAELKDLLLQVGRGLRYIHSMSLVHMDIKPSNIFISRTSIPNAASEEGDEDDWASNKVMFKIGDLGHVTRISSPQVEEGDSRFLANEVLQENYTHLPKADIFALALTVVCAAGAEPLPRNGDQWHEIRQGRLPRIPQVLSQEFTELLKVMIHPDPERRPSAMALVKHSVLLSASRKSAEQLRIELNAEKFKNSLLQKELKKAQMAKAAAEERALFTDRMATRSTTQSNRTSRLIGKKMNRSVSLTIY
T7 sequence (Q96SW2 whole entry): as the sequence (Q96SW2 whole entry) above
T7 sequence (Q16531 whole entry partner): as the sequence (Q16531 whole entry partner) above
T1 sequence (Q96SW2 whole entry): as the sequence (Q96SW2 whole entry) above

O=C1CCC(c2cncc(CCl)c2)C(=O)N1 (centres unmarked) [GT-06991, 3-(5-(Chloromethyl)pyridin-3-yl)piperidine-2,6-dione]
inhibition at 0.5 µM ([1]; at 0.5µM, read-out: Inhibition rate (%) at 0.5µM): 30 to 40% | inhibition at 2 µM ([1]; at 2 µM, read-out: Inhibition rate (%) at 2 µM): 53 to 60% | Degradation of substrate protein IKZF3 (substrate protein remaining %) (IKZF3): B (B is defined as substrate protein remaining % > 80%) | Degradation of substrate protein CKla (substrate protein remaining %) (CK1a): B (B is defined as substrate protein remaining % > 80%) | Degradation of substrate protein IKZF1 (substrate protein remaining %) (IKZF1): B (B is defined as substrate protein remaining % > 80%) | Degradation of substrate protein GSPT1 (substrate protein remaining %) (GSPT1): B (B is defined as substrate protein remaining % > 80%) | Degradation of substrate protein IKZF2 (substrate protein remaining %) (IKZF2): A (A is defined as 0% ≤ substrate protein remaining % ≤ 80%) | Degradation of substrate protein WEE1 (substrate protein remaining %) (WEE1): B (B is defined as substrate protein remaining % > 80%)

O=C1CCN(c2cncc(CCl)n2)C(=O)N1 [GT-07728, 1-(6-(Chloromethyl)pyrazin-2-yl)dihydropyrimidine-2,4(1H,3H)-dione]
Degradation of substrate protein IKZF3 (substrate protein remaining %) (IKZF3): A (A is defined as 0% ≤ substrate protein remaining % ≤ 80%) | Degradation of substrate protein CKla (substrate protein remaining %) (CK1a): B (B is defined as substrate protein remaining % > 80%) | Degradation of substrate protein IKZF1 (substrate protein remaining %) (IKZF1): A (A is defined as 0% ≤ substrate protein remaining % ≤ 80%) | Degradation of substrate protein GSPT1 (substrate protein remaining %) (GSPT1): B (B is defined as substrate protein remaining % > 80%) | Degradation of substrate protein IKZF2 (substrate protein remaining %) (IKZF2): A (A is defined as 0% ≤ substrate protein remaining % ≤ 80%) | Degradation of substrate protein WEE1 (substrate protein remaining %) (WEE1): A (A is defined as 0% ≤ substrate protein remaining % ≤ 80%)

NCc1cc(N2CCC(=O)NC2=O)cnc1F [GT-07729, 1-(5-(Aminomethyl)-6-fluoropyridin-3-yl)dihydropyrimidine-2,4(1H,3H)-dione]
Degradation of substrate protein IKZF3 (substrate protein remaining %) (IKZF3): A (A is defined as 0% ≤ substrate protein remaining % ≤ 80%) | Degradation of substrate protein CKla (substrate protein remaining %) (CK1a): B (B is defined as substrate protein remaining % > 80%) | Degradation of substrate protein IKZF1 (substrate protein remaining %) (IKZF1): A (A is defined as 0% ≤ substrate protein remaining % ≤ 80%) | Degradation of substrate protein GSPT1 (substrate protein remaining %) (GSPT1): A (A is defined as 0% ≤ substrate protein remaining % ≤ 80%) | Degradation of substrate protein IKZF2 (substrate protein remaining %) (IKZF2): A (A is defined as 0% ≤ substrate protein remaining % ≤ 80%) | Degradation of substrate protein WEE1 (substrate protein remaining %) (WEE1): A (A is defined as 0% ≤ substrate protein remaining % ≤ 80%)

NCc1cncc(N2CCC(=O)NC2=O)n1 [GT-07801, 1-(6-(Aminomethyl)pyrazin-2-yl)dihydropyrimidine-2,4(1H,3H)-dione]
Degradation of substrate protein IKZF3 (substrate protein remaining %) (IKZF3): B (B is defined as substrate protein remaining % > 80%) | Degradation of substrate protein CKla (substrate protein remaining %) (CK1a): A (A is defined as 0% ≤ substrate protein remaining % ≤ 80%) | Degradation of substrate protein IKZF1 (substrate protein remaining %) (IKZF1): B (B is defined as substrate protein remaining % > 80%) | Degradation of substrate protein GSPT1 (substrate protein remaining %) (GSPT1): B (B is defined as substrate protein remaining % > 80%) | Degradation of substrate protein IKZF2 (substrate protein remaining %) (IKZF2): B (B is defined as substrate protein remaining % > 80%) | Degradation of substrate protein WEE1 (substrate protein remaining %) (WEE1): B (B is defined as substrate protein remaining % > 80%)

O=C1CCC(Nc2ccc(CO)nn2)C(=O)N1 (centres unmarked) [GT-07803, 3-((6-(Hydroxymethyl)pyridazin-3-yl)amino)piperidine-2,6-dione]
Degradation of substrate protein IKZF3 (substrate protein remaining %) (IKZF3): A (A is defined as 0% ≤ substrate protein remaining % ≤ 80%) | Degradation of substrate protein CKla (substrate protein remaining %) (CK1a): B (B is defined as substrate protein remaining % > 80%) | Degradation of substrate protein IKZF1 (substrate protein remaining %) (IKZF1): A (A is defined as 0% ≤ substrate protein remaining % ≤ 80%) | Degradation of substrate protein GSPT1 (substrate protein remaining %) (GSPT1): B (B is defined as substrate protein remaining % > 80%) | Degradation of substrate protein IKZF2 (substrate protein remaining %) (IKZF2): A (A is defined as 0% ≤ substrate protein remaining % ≤ 80%) | Degradation of substrate protein WEE1 (substrate protein remaining %) (WEE1): B (B is defined as substrate protein remaining % > 80%)

O=Cc1ccncc1NC1CCC(=O)NC1=O (centres unmarked) [GT-07804, 3-((2,6-Dioxopiperidin-3-yl)amino)isonicotinaldehyde]
Degradation of substrate protein IKZF3 (substrate protein remaining %) (IKZF3): A (A is defined as 0% ≤ substrate protein remaining % ≤ 80%) | Degradation of substrate protein CKla (substrate protein remaining %) (CK1a): B (B is defined as substrate protein remaining % > 80%) | Degradation of substrate protein IKZF1 (substrate protein remaining %) (IKZF1): B (B is defined as substrate protein remaining % > 80%) | Degradation of substrate protein GSPT1 (substrate protein remaining %) (GSPT1): B (B is defined as substrate protein remaining % > 80%) | Degradation of substrate protein IKZF2 (substrate protein remaining %) (IKZF2): A (A is defined as 0% ≤ substrate protein remaining % ≤ 80%) | Degradation of substrate protein WEE1 (substrate protein remaining %) (WEE1): B (B is defined as substrate protein remaining % > 80%)

O=Cc1cncnc1NC1CCC(=O)NC1=O (centres unmarked) [GT-07805, 4-((2,6-Dioxopiperidin-3-yl)amino)pyrimidine-5-carbaldehyde]
Degradation of substrate protein IKZF3 (substrate protein remaining %) (IKZF3): A (A is defined as 0% ≤ substrate protein remaining % ≤ 80%) | Degradation of substrate protein CKla (substrate protein remaining %) (CK1a): B (B is defined as substrate protein remaining % > 80%) | Degradation of substrate protein IKZF1 (substrate protein remaining %) (IKZF1): A (A is defined as 0% ≤ substrate protein remaining % ≤ 80%) | Degradation of substrate protein GSPT1 (substrate protein remaining %) (GSPT1): B (B is defined as substrate protein remaining % > 80%) | Degradation of substrate protein IKZF2 (substrate protein remaining %) (IKZF2): A (A is defined as 0% ≤ substrate protein remaining % ≤ 80%) | Degradation of substrate protein WEE1 (substrate protein remaining %) (WEE1): B (B is defined as substrate protein remaining % > 80%)

CC(C)(C)[Si](C)(C)OCc1cnc(NC2CCC(=O)NC2=O)nc1 (centres unmarked) [GT-07808, 3-((5-(((tert-Butyldimethylsilyl)oxy)methyl)pyrimidin-2-yl)amino)piperidine-2,6-dione]
Degradation of substrate protein IKZF3 (substrate protein remaining %) (IKZF3): A (A is defined as 0% ≤ substrate protein remaining % ≤ 80%) | Degradation of substrate protein CKla (substrate protein remaining %) (CK1a): B (B is defined as substrate protein remaining % > 80%) | Degradation of substrate protein IKZF1 (substrate protein remaining %) (IKZF1): A (A is defined as 0% ≤ substrate protein remaining % ≤ 80%) | Degradation of substrate protein GSPT1 (substrate protein remaining %) (GSPT1): B (B is defined as substrate protein remaining % > 80%) | Degradation of substrate protein IKZF2 (substrate protein remaining %) (IKZF2): A (A is defined as 0% ≤ substrate protein remaining % ≤ 80%) | Degradation of substrate protein WEE1 (substrate protein remaining %) (WEE1): A (A is defined as 0% ≤ substrate protein remaining % ≤ 80%)

O=C1CCC(Nc2ncc(CO)cn2)C(=O)N1 (centres unmarked) [GT-07809, 3-((5-(Hydroxymethyl)pyrimidin-2-yl)amino)piperidine-2,6-dione]
Degradation of substrate protein IKZF3 (substrate protein remaining %) (IKZF3): A (A is defined as 0% ≤ substrate protein remaining % ≤ 80%) | Degradation of substrate protein CKla (substrate protein remaining %) (CK1a): B (B is defined as substrate protein remaining % > 80%) | Degradation of substrate protein IKZF1 (substrate protein remaining %) (IKZF1): A (A is defined as 0% ≤ substrate protein remaining % ≤ 80%) | Degradation of substrate protein GSPT1 (substrate protein remaining %) (GSPT1): B (B is defined as substrate protein remaining % > 80%) | Degradation of substrate protein IKZF2 (substrate protein remaining %) (IKZF2): A (A is defined as 0% ≤ substrate protein remaining % ≤ 80%) | Degradation of substrate protein WEE1 (substrate protein remaining %) (WEE1): A (A is defined as 0% ≤ substrate protein remaining % ≤ 80%)
